# Results reported in US5032577A, “Peptidylaminodiols” (Abbott Laboratories, priority 1987, dated 1991).
# Target: T1, human renal renin (Homo sapiens, UniProt P00797)
# T1 construct: human renal renin, free from acid proteolytic activity; from tissue
# T1 sequence (P00797 67-406): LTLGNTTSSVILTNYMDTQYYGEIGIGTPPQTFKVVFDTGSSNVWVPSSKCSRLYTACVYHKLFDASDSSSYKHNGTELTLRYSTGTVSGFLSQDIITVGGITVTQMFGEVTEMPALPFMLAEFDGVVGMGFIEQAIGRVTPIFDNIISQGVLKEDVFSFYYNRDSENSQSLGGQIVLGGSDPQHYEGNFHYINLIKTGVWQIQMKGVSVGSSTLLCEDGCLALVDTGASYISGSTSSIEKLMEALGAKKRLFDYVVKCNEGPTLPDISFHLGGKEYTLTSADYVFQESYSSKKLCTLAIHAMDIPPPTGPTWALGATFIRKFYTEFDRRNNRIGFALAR
# Experiment: Inhibition of human renal renin in vitro; angiotensin I formed measured by radioimmunoassay
# Assay type: biochemical
row,SMILES,IC50 [nM]
1,"COC(=O)C(CCCCC(=O)N[C@@H](Cc1ccc(OC)cc1)C(=O)N[C@@H](CC(C)C)C(=O)N[C@@H](CC1CCCCC1)[C@@H](O)[C@@H](O)CC(C)C)NC(=O)OCc1ccccc1 (stereo partly drawn) [Example 192, 6-(BenzYloxYcarbonyl)amino-6-(methoxycarbonyl)hexanoyl-(4-OMe)Phe-Leu Amide of 2(S)-Amino-l-cyclohexyl-3(R),4(S)-dihydroxy-6-methylheptane]",0.61
2,"COC(=O)C(N)CCCCC(=O)N[C@@H](Cc1ccc(OC)cc1)C(=O)N[C@@H](CC(C)C)C(=O)N[C@@H](CC1CCCCC1)[C@@H](O)[C@@H](O)CC(C)C (stereo partly drawn) [Example 193, 6-Amino-6-(methoxycarbonyl)hexanoyl-(4-OMe)Phe-Leu Amide of 2(S)-Amino-l-cyclohexyl-3(R),4(S)-dihydroxy-6-methylheptane]",0.74
3,"COc1ccc(C[C@H](NC(=O)CCCCC(N)C(=O)O)C(=O)N[C@@H](CC(C)C)C(=O)N[C@@H](CC2CCCCC2)[C@@H](O)[C@@H](O)CC(C)C)cc1 (stereo partly drawn) [Example 194, 6-Amino-6-carboxyhexanoyl-(4-OMe)Phe-Leu Amide of 2(S)-Amino-l-cyclohexyl-3(R),4(S)-dihydroxy-6-methylheptane]",2.3
4,"COCCOCOCCN(C)C(=O)C[C@@H](Cc1ccccc1)C(=O)N[C@@H](Cc1c[nH]cn1)C(=O)N[C@@H](CC1CCCCC1)[C@@H](O)[C@@H](O)CC(C)C [Example 214, (2R)-2-Benzyl-3-(N-methyl-N-2-methoxyethoxymethoxyethylamino-carbonyl)propionyl-His Amide of 2(S)-Amino-l-cyclohexyl-3(R),4(S)-dihydroxy-6-methylheptane]",0.24
